According to PMC5216056 (Nature Communications, 2017):
Values joined by “and” are separate entries in the source; they are usually repeats but may differ in a detail not shown here. Equal values may be shown once. Read-outs that look alike come from different tables or passages of the source.

Key:
hCB2R [1] = target: T1, hCB2R (Homo sapiens, UniProt P34972); set-up: expressed in transfected cells; host or cells: Flp-In-293 (Invitrogen #R750-07), pcDNA5/FRT
mCB2R [2] = target: T2, mCB2R (Mus musculus, UniProt P47936); test: biochemical; type: binding; set-up: from tissue; host or cells: spleen of male C57BL/6J mice; conditions: mouse spleen membranes; read-out: pKi ± SEM mCB2R (converted)
T2 sequence (P47936 whole entry): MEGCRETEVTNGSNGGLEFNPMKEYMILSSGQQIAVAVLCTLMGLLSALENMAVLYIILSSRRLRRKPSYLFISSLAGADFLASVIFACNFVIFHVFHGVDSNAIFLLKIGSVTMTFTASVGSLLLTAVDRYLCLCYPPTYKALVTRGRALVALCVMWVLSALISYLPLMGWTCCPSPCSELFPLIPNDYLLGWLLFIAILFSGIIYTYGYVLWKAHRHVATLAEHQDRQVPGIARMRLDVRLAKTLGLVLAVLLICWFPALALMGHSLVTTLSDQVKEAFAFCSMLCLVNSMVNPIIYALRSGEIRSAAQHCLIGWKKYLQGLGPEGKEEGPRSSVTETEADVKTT

C57BL6/J mice [3] = test: Triad assay: catalepsy; type: in vivo, mouse; conditions: i.p., cumulative dosing, mice
hCB1R [4] = target: T3, hCB1R (Homo sapiens, UniProt P21554); test: biochemical; type: binding
T3 construct: host or cells: CHO
T3 sequence (P21554 whole entry): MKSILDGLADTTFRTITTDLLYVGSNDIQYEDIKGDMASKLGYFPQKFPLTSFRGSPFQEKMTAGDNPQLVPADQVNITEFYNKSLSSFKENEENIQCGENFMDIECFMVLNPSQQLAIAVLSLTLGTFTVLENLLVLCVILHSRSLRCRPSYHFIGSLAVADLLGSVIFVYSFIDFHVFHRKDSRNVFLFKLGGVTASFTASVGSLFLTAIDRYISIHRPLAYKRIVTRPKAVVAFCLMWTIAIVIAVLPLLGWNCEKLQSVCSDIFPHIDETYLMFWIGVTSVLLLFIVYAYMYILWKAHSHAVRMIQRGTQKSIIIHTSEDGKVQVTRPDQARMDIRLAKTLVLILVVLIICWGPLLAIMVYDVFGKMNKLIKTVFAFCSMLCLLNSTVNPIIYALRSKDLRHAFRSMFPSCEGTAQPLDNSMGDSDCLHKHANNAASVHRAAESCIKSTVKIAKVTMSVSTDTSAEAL

hCB2R [5] = target: T1, hCB2R; test: cell-based; type: cell-based; set-up: expressed in transfected cells; host or cells: Flp-In-293 (Invitrogen #R750-07), pcDNA5/FRT; conditions: AtT20, read-out: Emax ± SEM GIRK hCB2R
in vitro [6] = conditions: both, human, microsomes, pH 7.4
mCB1R [7] = target: T4, mCB1R (Mus musculus, UniProt P47746); test: biochemical
T4 construct: from tissue; host or cells: brain of male C57BL/6J mice
T4 sequence (P47746 whole entry): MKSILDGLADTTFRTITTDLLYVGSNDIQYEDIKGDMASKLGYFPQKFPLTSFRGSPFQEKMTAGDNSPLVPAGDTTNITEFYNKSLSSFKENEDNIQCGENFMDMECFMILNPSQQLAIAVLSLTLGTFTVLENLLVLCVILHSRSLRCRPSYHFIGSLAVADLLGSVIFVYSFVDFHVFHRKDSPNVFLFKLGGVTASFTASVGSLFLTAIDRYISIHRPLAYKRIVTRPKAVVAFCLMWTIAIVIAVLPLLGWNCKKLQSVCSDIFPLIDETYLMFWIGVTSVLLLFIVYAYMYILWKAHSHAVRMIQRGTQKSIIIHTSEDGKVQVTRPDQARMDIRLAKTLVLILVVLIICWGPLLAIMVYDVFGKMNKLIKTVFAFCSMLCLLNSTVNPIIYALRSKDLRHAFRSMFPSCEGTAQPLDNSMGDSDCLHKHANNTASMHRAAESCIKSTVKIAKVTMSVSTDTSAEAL

C57BL6/J mice [8] = test: Triad assay: antinociception; type: in vivo, mouse; conditions: i.p., cumulative dosing, mice
hCB1R [9] = target: T3, hCB1R; test: cell-based; type: cell-based; conditions: read-out: Emax ± SEM pERK hCB1R
physchem = conditions: pH 6.5, aqueous buffer, thermodynamic from solid
hCB2R [10] = target: T1, hCB2R; test: cell-based; type: cell-based; set-up: expressed in transfected cells; host or cells: Flp-In-293 (Invitrogen #R750-07), pcDNA5/FRT; conditions: read-out: Emax ± SEM cAMP hCB2R
[11] = test system: AEA reuptake in HaCaT cells; test: cells; type: cell-based, human; conditions: Homo sapiens, HaCaT
in vitro [12] = conditions: male, C57BL/6J, mouse, microsomes, pH 7.4
hCB1R [13] = target: T3, hCB1R; test: cell-based; type: cell-based; conditions: AtT20, read-out: Emax ± SEM GIRK hCB1R
mCB2R [14] = target: T2, mCB2R; test: biochemical; type: biochemical; set-up: from tissue; host or cells: spleen of male C57BL/6J mice
hCB2R [15] = target: T1, hCB2R; test: cell-based; type: cell-based; set-up: expressed in transfected cells; host or cells: Flp-In-293 (Invitrogen #R750-07), pcDNA5/FRT; conditions: read-out: Emax ± SEM pERK hCB2R
mCB1R [16] = target: T4, mCB1R; test: biochemical; type: binding
C57BL6/J mice [17] = test: Triad assay: hypothermia; type: in vivo, mouse; conditions: i.p., cumulative dosing, mice
hCB1R [18] = target: T3, hCB1R; test: cell-based

T1 sequence (P34972 whole entry): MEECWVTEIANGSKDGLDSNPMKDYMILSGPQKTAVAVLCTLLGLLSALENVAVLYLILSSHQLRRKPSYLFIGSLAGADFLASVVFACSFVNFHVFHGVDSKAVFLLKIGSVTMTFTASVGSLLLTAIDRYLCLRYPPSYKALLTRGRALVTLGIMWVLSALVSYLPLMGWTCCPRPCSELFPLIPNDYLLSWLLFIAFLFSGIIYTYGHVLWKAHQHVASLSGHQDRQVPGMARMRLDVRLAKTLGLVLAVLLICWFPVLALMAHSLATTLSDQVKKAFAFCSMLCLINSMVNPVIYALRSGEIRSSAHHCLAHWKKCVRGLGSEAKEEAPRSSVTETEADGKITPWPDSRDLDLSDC

SMILES: CCCCCCC(C)(C)c1cc(O)c2c(c1)OC(C)(C)[C@@H]1CC=C(CO)C[C@@H]21 [HU210]
- LogR GIRK (hCB2R [1]): 7.19
- LogR pERK (hCB2R [1]): 8.22
- RE GIRK (hCB2R [1]): 0.21
- RE pERK (hCB2R [1]): 0.15
- pERK-GIRK bias factor (BF) (hCB2R [1]): 0.71
- pERK-GIRK ΔΔlogR (hCB2R [1]): -0.15
- ΔLogR GIRK (hCB2R [1]): -0.67
- ΔLogR pERK (hCB2R [1]): -0.82
- Ki (mCB2R [2]): 0.537 nM
- catalepsy ED50 (95% CL) (C57BL6/J mice [3]): 0.19 (0.14–0.27) mg kg^−1
- Ki (hCB1R [4]): 0.282 nM
- Pct acceptor (PAMPA): 0%
- Pct donor (PAMPA): 23%
- Pct membrane (PAMPA, compound found in membranes): 76%
- Pampa Peff (membrane permeation coefficient): 0.22 cm/s*10-6
- Emax (hCB2R [5]): 105 ± 4%
- microsomal CLint (in vitro [6]): 25 µL/min/mg
- EC50 (mCB1R [7]; pEC50 ± SEM cAMP mCB1R): 0.0933 nM
- Emax (mCB1R [7]; read-out: Emax cAMP mCB1R): 65%
- antinociception ED50 (95% CL) (C57BL6/J mice [8]): 0.41 (0.31–0.54) mg kg^−1
- Emax (hCB1R [9]): 96 ± 7%
- solubility kinetic (physchem): < 0.2 µg/mL and < 0.5 µM
- Emax (hCB2R [10]): 94 ± 0.1%
- inhibition at 10 µM ([11]; read-out: AEA reuptake % inhibition, effect at 10 µM, HaCaT cells, 10 µM (values marked *)): 44%
- IC50 ([11]; read-out: AEA reuptake IC50 (95% CI) HaCaT cells): > 5000 nM
- microsomal CLint (in vitro [12]): 33 µL/min/mg
- Emax (hCB1R [13]): 97 ± 8%
- EC50 (mCB2R [14]; mouse spleen, read-out: pEC50 ± SEM cAMP mCB2R (converted)): 6.61 nM
- Emax (mCB2R [14]; read-out: Emax cAMP mCB2R): 68%
- Emax (hCB2R [15]): 105 ± 10%
- Ki (mCB1R [16]): 1.1 nM
- hypothermia ED50 (95% CL) (C57BL6/J mice [17]): 0.35 (0.30–0.41) mg kg^−1
- EC50 (hCB1R [18]; pEC50 ± SEM cAMP hCB1R): 0.263 nM
- Emax (hCB1R [18]; read-out: Emax ± SEM cAMP hCB1R): 104 ± 3%
